Assay results reported in the supplement of paper PMC10307832.

Tests used:
Assay in all cases: relative viability (nuclei count vs DMSO), 5 days (fraction); higher = more cells survive
[1] = compound: COc1cc2ncn(-c3cc(OCc4ccccc4C(F)(F)F)c(C(N)=O)s3)c2cc1OC + CC(C)C[C@H](NC(=O)[C@H](Cc1ccccc1)NC(=O)c1cnccn1)B(O)O [Bortezomib] (partner 0.002 µM)
Method in brief: (§1)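 One day after seeding in 1536-well plates, lung cancer cell lines were dosed by pin tool. Dosing was either single-drug or a fixed anchor-drug dose plus five library-drug doses (not always all listed) in √10 steps. After 5 days, nuclei were stained in one fix-and-stain step and counted on 4× images, and relative viability is the nuclei count of treated wells over that of vehicle wells, given as the median of duplicate plates.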

[2] = compound: COc1cc2ncn(-c3cc(OCc4ccccc4C(F)(F)F)c(C(N)=O)s3)c2cc1OC + CC(=O)c1c(C)c2cnc(Nc3ccc(N4CCNCC4)cn3)nc2n(C2CCCC2)c1=O [Palbociclib] (partner 0.5 µM)
Method in brief: as §1

[3] = compound: COc1cc2ncn(-c3cc(OCc4ccccc4C(F)(F)F)c(C(N)=O)s3)c2cc1OC + COc1cc2c(Oc3ccc(NC(=O)C4(C(=O)Nc5ccc(F)cc5)CC4)cc3F)ccnc2cc1OCCCN1CCOCC1 [Foretinib] (partner 0.25 µM)
Method in brief: as §1

[4] = compound: COc1cc2ncn(-c3cc(OCc4ccccc4C(F)(F)F)c(C(N)=O)s3)c2cc1OC + CS(=O)(=O)N1CCN(Cc2cc3nc(-c4cccc5[nH]ncc45)nc(N4CCOCC4)c3s2)CC1 [Pictilisib] (partner 1 µM)
Method in brief: as §1

Cell Line	relative viability ([1]; first compound 0.05 µM)	relative viability ([1]; first compound 0.1581 µM)	relative viability ([1]; first compound 0.5 µM)	relative viability ([1]; first compound 1.581 µM)	relative viability ([1]; first compound 5 µM)	relative viability ([2]; first compound 0.05 µM)	relative viability ([2]; first compound 0.1581 µM)	relative viability ([2]; first compound 0.5 µM)	relative viability ([2]; first compound 1.581 µM)	relative viability ([2]; first compound 5 µM)	relative viability ([3]; first compound 0.05 µM)	relative viability ([3]; first compound 0.1581 µM)	relative viability ([3]; first compound 0.5 µM)	relative viability ([3]; first compound 1.581 µM)	relative viability ([3]; first compound 5 µM)	relative viability ([4]; first compound 0.05 µM)	relative viability ([4]; first compound 0.1581 µM)	relative viability ([4]; first compound 0.5 µM)	relative viability ([4]; first compound 1.581 µM)	relative viability ([4]; first compound 5 µM)
HCC-366	1.12	1.04	0.646	0.018	0.0097	0.136	0.372	0.248	0.0295	0.0149	0.962	0.938	0.282	0.0269	0.0243	0.149	0.12	0.0681	0.0359	0.015
HCC-827	1.06	0.98	1.02	0.776	0.508	0.442	0.391	0.486	0.424	0.217	1.04	0.987	0.718	0.277	0.213	0.917	1.13	0.968	0.77	0.56
HOP-62	0.977	1.2	0.507	0.178	0.124	0.411	0.417	0.403	0.148	0.107	1.16	1	1.03	0.295	0.139	0.753	0.805	0.566	0.123	0.0836
LC-2-ad	0.866	0.516	0.399	0.108	0.106	0.457	0.422	0.401	0.237	0.194	0.916	0.946	0.506	0.286	0.303	0.383	0.108	0.0797	0.0935	0.0834
LCLC-97TM1	0.77	0.71	0.354	0.0568	0.0894	0.216	0.191	0.17	0.0856	0.111	0.914	0.896	0.646	0.184	0.147	0.203	0.2	0.123	0.134	0.125
LCLC-103H	1	1.03	0.744	0.522	0.208	0.477	0.471	0.456	0.35	0.302	0.646	0.831	0.537	0.199	0.131	0.594	0.695	0.54	0.271	0.135
LOU-NH91	0.434	0.368	0.405	0.348	0.346	0.529	0.479	0.517	0.446	0.333	0.933	0.978	0.754	0.423	0.713	0.554	0.544	0.51	0.399	0.418
LU99A	1.14	1.08	0.898	0.206	0.201	0.408	0.386	0.345	0.184	0.145	0.564	0.87	0.572	0.302	0.216	0.307	0.342	0.271	0.159	0.15
LXF-289	0.84	0.781	0.649	0.0959	0.0616	0.607	0.57	0.481	0.233	0.107	0.92	0.858	0.483	0.158	0.0736	0.789	0.752	0.447	0.0857	0.0529
NCI-H23	1.14	0.847	0.648	0.132	0.117	0.313	0.408	0.285	0.148	0.121	1.02	0.759	0.564	0.123	0.138	0.451	0.339	0.228	0.148	0.117
NCI-H322M	1.16	1.45	1.21	0.878	0.45	0.519	0.511	0.457	0.429	0.484	0.956	1.16	0.857	0.499	0.406	0.549	0.505	0.556	0.384	0.318
NCI-H441	0.565	0.463	0.273	0.154	0.176	0.243	0.255	0.172	0.125	0.147	1.03	0.871	0.266	0.249	0.226	0.652	0.352	0.163	0.13	0.131
NCI-H460	1.08	0.805	0.487	0.0103	0.0108	0.185	0.172	0.173	0.0095	0.0133	1.07	0.938	0.499	0.028	0.0214	0.401	0.206	0.323	0.0526	0.183
NCI-H520	0.689	0.568	0.25	0.169	0.144	0.149	0.253	0.179	0.155	0.121	0.892	0.836	0.357	0.249	0.204	0.29	0.316	0.345	0.193	0.172
